A short description of this data set: 28-day repeated-dose oral toxicity. In kind it is in vivo. As for the experimental part: In the rat repeated-dose toxicokinetic study, fexinidazole was administered orally by gavage once a day for 28 consecutive days to ten or fifteen Crl:CD (SD)IGS BR rats/sex/group at doses of 50, 200, or 800 mg/kg/day. A control group received the vehicle alone (5% Tween 80/0.5% methocel). Ten animals/sex/group were sacrificed at the end of the treatment period on day 29 or 30 of study. The remaining 5 animals/sex/group in the control and high-dose groups were sacrificed on day 43 at the end of a 2-weeks observation period. Systemic exposure to fexinidazole and its sulfoxide and sulfone metabolites was evaluated in three additional animals/sex/group. Samples were taken at predose, and 30 min, 1, 2, 4, 8 and 24 h after dosing on days 1, 14, and 28, and in addition at 48 and 72 h after treatment on day 28.
Study Report for NervianoMS Study 0504-2007
Fexinidaxole, a 5-nitroimidazole derivative biologically active against Trypanosoma parasites (T.b. rhodesiense and T.b. brucei ), was administered orally by gavage once daily for 28 consecutive days to ten or fifteen Crl:CD (SD)IGS BR rats/sex/group at doses of 50, 200 and 800 mg/kg/day in a volume of 10 mL/kg.
A control group received the vehicle alone (5% Tween 80 in 0.5% Methyl cellulose 400 cP […]
Ten animals/sex/group were sacrificed at the end of the treatment period on Day 29 or 30 of study. The remaining 5 animals/sex in the control and high-dose groups were sacrificed on Day 43 at the end of a two-week observation period.
Mortality, behavior and general condition were observed daily. Body weight was recorded pretest, and on Days 1, 8, 14, 21, 28, 35 and 42. Food consumption was recorded from Days […]
pre-test, and on Days 28 and 42. Hematological and clinical chemistry examinations and urine analysis were performed on Days 29 and 43.
Post-mortem examinations performed at the end of the treatment period (Day 29 or 30) or the recovery period (Day 43) included necropsy, organ weights and histological […]
Systemic exposure information was obtained from three additional animals/sex/group on Days 1 and 14 at different time-points up to 24 hours after treatment and on Day 28 at different time-points up to 72 hours after treatment.
No meaningful clinical signs or changes in ophthalmoscopic examinations were seen. […]
animals at 200 and 800 mg/kg for the entire treatment period. When treatment was […]
weight gain in comparison with controls.
Nerviano Medical Sciences […]
Humidity 55% +/- 15; monitored
Air Approximately twenty air changes per hour; monitored
Lighting Approximate 12-hour light, 12-hour dark cycle. The lighting cycle could be interrupted for performance of protocol-defined activities.
Water Municipal main, water available ad libitum
Diet 4RF21 GLP pellets ad libitum, supplied by Mucedola
Actual conditions were continuously monitored and recorded, and records were retained.
Release of each lot of feed by the manufacturers was based on analysis of composite samples of each lot, which met specifications set by the manufacturers. Water was periodically analyzed for chemical and microbial impurities. No contaminants were identified in the food or water which were expected to interfere with the results or conclusions of this study.
All the above environmental conditions, as well as all the procedures adopted throughout the study for housing and handling the animals, were in strict compliance with EEC and Italian Guidelines for Laboratory Animal Welfare.
6.2.2. Allocation/Randomization
The animals were selected and distributed into experimental groups using random number tables (Fisher and Yates). The randomization was performed during the pretest period on February 1, 2008 for all animals.
One male animal (No. 2846) assigned to satellite study group for toxicokinetic purposes, found dead on Day 2 of study, was replaced with another one taken from the same arrival batch of animals, in order to maintain the number of three animals/sex/group for subsequent […]
blood samplings. […]

`CSc1ccc(OCc2ncc([N+](=O)[O-])n2C)cc1` [Fexinidazole, 1-methyl-2-((p-(methylthio)phenoxy)methyl)-5-nitroimidazole]: under “all groups”, the mortality entry was “No compound-related mortality occurred”. This compound returned an NOAEL at 28 days (both sexes, Crl:CD (SD)IGS BR, rat, in vivo, po) of 200 mg/kg/day. For the same compound, under “rat, in vivo”, the decrease in hemoglobin was 8%, the decrease in neutrophils result is recorded as “about 46%”, the decrease in triglycerides is 50% and the increase in globulins entry was “+13%”. Also, for the setting “rat, in vivo”, the “increase in total cholesterol” value was “+51%”; the liver enzymes result was “no increase in liver enzymes including AST and ALT”; the liver histopathology result is reported as “Minimal to slight hypertrophy of the centrilobular hepatocytes”.

Broadly, the NOAEL is the highest tested level that showed no adverse finding.

For the origin of these results see PMC3006138, “Fexinidazole – A New Oral Nitroimidazole Drug Candidate Entering Clinical Development for the Treatment of Sleeping Sickness” (PLoS Neglected Tropical Diseases, 2010).
